The results in this text go back to patent US8710055B2, “Triazolylphenyl sulfonamides as serine/threonine kinase inhibitors” (Boehringer Ingelheim International GmbH, priority 2010, dated 2014).

The test system of the assay is SK-MEL-28 cells (B-RAF V600E mutated). Description: Inhibition of the proliferation of cultivated human melanoma cells (SK-MEL-28), AlamarBlue. The assay is classed as cell-based. The settings on record: 72 h incubation. On the procedure: Measurement of the Inhibition of the Proliferation of Cultivated Human Melanoma Cells (SK-MEL-28, B-RAF^[…] Mutated)
For measuring the proliferation of cultivated human tumour cells, cells of the melanoma cell line SK-MEL-28 [from American Type Culture Collection (ATCC)] are cultivated in MEM medium, supplemented with 10% foetal calf serum, 2% sodium bicarbonate, 1 mM sodium pyruvate, 1% non-essential amino acids (e.g. from Cambrex, # BE13-114E) and 2 mM glutamine. SK-MEL-28 cells are placed in 96-well flat bottomed dishes in a density of 2500 cells per well in supplemented MEM medium (see above) and incubated overnight in an incubator (at 37° C. and 5% CO2). The active substances are added to the cells in different concentrations, so that a concentration range of 50 μM to 3.2 nM is covered. If necessary the initial concentration of 50 μM is changed to 10 μM or 2 μM and further dilution is carried out accordingly (up to 0.6 nM or 0.12 nM). After an incubation period of a further 72 h 20 μL AlamarBlue reagent (Serotec Ltd., # BUF012B) are added to each well and the cells are incubated for a further 3-6 h. The colour change of the AlamarBlue reagent is determined in a fluorescence spectrophotometer (e.g. Gemini, Molecular Devices). EC50 values are calculated using a software program (GraphPadPrizm).
For `CC(C)CS(=O)(=O)Nc1ccc(F)c(-n2cc(-c3cncc(N4CCN(CC5CC5)CC4)c3)nn2)c1F` [Example I-28], the EC50 was 88 nM.

In turn, `CC(C)CS(=O)(=O)Nc1ccc(F)c(-n2cc(-c3cncc(N4CCN(C5CC5)CC4)c3)nn2)c1F` [Example I-29] returned an EC50 of 37 nM.

Compound `CCCS(=O)(=O)Nc1ccc(F)c(-n2cc(-c3cncc(N(C)CCOC)c3)nn2)c1F` [Example I-30] registered an EC50 of 1230 nM.

`CCCS(=O)(=O)Nc1ccc(F)c(-n2cc(-c3cncc(N(C)CCN4CCOCC4)c3)nn2)c1F` [Example I-31] yielded an EC50 of 1450 nM.

Compound `CCCS(=O)(=O)Nc1ccc(F)c(-n2cc(-c3cncc(-n4cnc(C)c4)c3)nn2)c1F` [Example I-32] gave an EC50 of 114 nM.

Compound `CCCS(=O)(=O)Nc1ccc(F)c(-n2cc(-c3cncc(OC4CCOCC4)c3)nn2)c1F` [Example I-33] gave an EC50 of 671 nM.

For `CCCS(=O)(=O)Nc1ccc(F)c(-n2cc(-c3cncc(OC(C)C)c3)nn2)c1F` [Example I-34], the midpoint of the response, the EC50, lay at 218 nM.

`CCCS(=O)(=O)Nc1ccc(F)c(-n2cc(-c3cncc(OCC)c3)nn2)c1F` [Example I-35]: a half-maximal effect (EC50) was put at 358 nM.

In the case of `CCCS(=O)(=O)Nc1ccc(F)c(-n2cc(-c3cncc(OCCOC)c3)nn2)c1F` [Example I-36], the EC50 was 589 nM.

In turn, `CCCS(=O)(=O)Nc1ccc(F)c(-n2cc(-c3cncc(OCCN(C)C(C)C)c3)nn2)c1F` [Example I-37] yielded an EC50 of 928 nM.

For the compound `COc1cncc(-c2cn(-c3c(F)ccc(NS(=O)(=O)c4cc(F)ccc4F)c3F)nn2)c1` [Example I-38], the EC50 stood at 363 nM.

Regarding `CCCS(=O)(=O)Nc1ccc(Cl)c(-n2cc(-c3cncc(OC)c3)nn2)c1F` [Example I-39], the midpoint of the response, the EC50, lay at 145 nM.

For `CCS(=O)(=O)Nc1ccc(Cl)c(-n2cc(-c3cncc(OC)c3)nn2)c1F` [Example I-40], a half-maximal effect (EC50) was put at 327 nM.

With `COc1cncc(-c2cn(-c3c(Cl)ccc(NS(=O)(=O)C(C)C)c3F)nn2)c1` [Example I-41], the response was half-maximal at 403 nM (EC50).

Compound `COc1cncc(-c2cn(-c3c(F)ccc(NS(=O)(=O)c4cccnc4)c3F)nn2)c1` [Example I-42] came in with an EC50 of 292 nM.

As for `CCCCS(=O)(=O)Nc1ccc(F)c(-n2cc(-c3cncc(OC)c3)nn2)c1F` [Example I-43], the response was half-maximal at 432 nM (EC50).

With `COc1cncc(-c2cn(-c3c(F)ccc(NS(=O)(=O)c4ccoc4)c3F)nn2)c1` [Example I-45], it took 24 nM to reach a half-maximal effect (EC50). This EC50 lies about 18-fold lower than the previous one.

`COc1cncc(-c2cn(-c3c(F)ccc(NS(=O)(=O)CC4CC4)c3F)nn2)c1` [Example I-46]: a half-maximal effect (EC50) was put at 480 nM.

In turn, `COc1cncc(-c2cn(-c3c(F)ccc(NS(=O)(=O)c4ccco4)c3F)nn2)c1` [Example I-47] displayed an EC50 of 159 nM.

On to `CCCS(=O)(=O)Nc1ccc(F)c(-n2cc(-c3cncc(-n4cc(C)nc4C)c3)nn2)c1F` [Example I-48], for which the midpoint of the response, the EC50, lay at 545 nM.

`CCCS(=O)(=O)Nc1ccc(F)c(-n2cc(-c3cncc(N4CCNCC4)c3)nn2)c1F` [Example I-50] showed an EC50 of 493 nM.

The compound `CCCS(=O)(=O)Nc1ccc(F)c(-n2cc(-c3cncc(N4CCN(C5COC5)CC4)c3)nn2)c1F` [Example I-51] registered an EC50 of 114 nM. This EC50 is about 4.3-fold lower than that of the compound before.

`CCCS(=O)(=O)Nc1ccc(F)c(-n2cc(-c3cncc(N4CCN(CC#N)CC4)c3)nn2)c1F` [Example I-52] came in with an EC50 of 153 nM.

`C#CCN1CCN(c2cncc(-c3cn(-c4c(F)ccc(NS(=O)(=O)CCC)c4F)nn3)c2)CC1` [Example I-53] yielded an EC50 of 68 nM.

For `O=S(=O)(Nc1ccc(F)c(-n2cc(-c3cncc(N4CCN(CC5CC5)CC4)c3)nn2)c1Cl)c1ccoc1` [Example I-54], a half-maximal response (EC50) required 7 nM.

Consider `COc1cncc(-c2cn(-c3c(F)ccc(NS(=O)(=O)c4ccoc4)c3Cl)nn2)c1` [Example I-55], for which a half-maximal effect (EC50) was put at 32 nM.

Compound `COCCS(=O)(=O)Nc1ccc(F)c(-n2cc(-c3cncc(N4CCN(C5CC5)CC4)c3)nn2)c1F` [Example I-56] returned an EC50 of 675 nM.

In turn, `CCCS(=O)(=O)Nc1ccc(F)c(-n2cc(-c3cncc(-n4cnc(C(F)(F)F)c4)c3)nn2)c1F` [Example I-57] showed an EC50 of 306 nM. This EC50 is about 2.2-fold lower than that of the compound before.

Compound `CCCS(=O)(=O)Nc1ccc(F)c(-n2cc(-c3cncc(N4CCN(C5CCOC5)CC4)c3)nn2)c1F` (stereo not shown) [Example I-58] showed an EC50 of 71 nM.

As to `CCCS(=O)(=O)Nc1ccc(F)c(-n2cc(-c3cncc(N4CCN(C5CCC5)CC4)c3)nn2)c1F` [Example I-59], the response was half-maximal at 98 nM (EC50).

Regarding `O=S(=O)(Nc1ccc(F)c(-n2cc(-c3cncc(N4CCN(C5CC5)CC4)c3)nn2)c1F)c1ccoc1` [Example I-60], the EC50 was found to be 9 nM.

With `CC(C)N1CCN(c2cncc(-c3cn(-c4c(F)ccc(NS(=O)(=O)c5ccoc5)c4F)nn3)c2)CC1` [Example I-61], the midpoint of the response, the EC50, lay at 10 nM. This EC50 and that of the compound before are within 1.5-fold of each other.

Consider `CCCS(=O)(=O)Nc1ccc(F)c(-n2cc(-c3cncc(N4CCN(C(C)C)CC4)c3)nn2)c1Cl` [Example I-63], for which the EC50 came out at 44 nM.

`CCCS(=O)(=O)Nc1ccc(F)c(-n2cc(-c3cncc(N4CCN(CC5CC5)CC4)c3)nn2)c1Cl` [Example I-64]: the EC50 was found to be 38 nM.

`CCCS(=O)(=O)Nc1ccc(F)c(-n2cc(-c3cncc(N4CCN(C5CC5)CC4)c3)nn2)c1Cl` [Example I-65] gave an EC50 of 32 nM.

On to `CCCS(=O)(=O)Nc1ccc(F)c(-n2cc(-c3cncc(N4CCN(CC)CC4)c3)nn2)c1Cl` [Example I-66], for which the EC50 was found to be 55 nM. This EC50 lies about 1.7-fold higher than the previous one.

Compound `O=S(=O)(Nc1ccc(F)c(-n2cc(-c3cncc(N4CCN(C5CC5)CC4)c3)nn2)c1Cl)c1ccoc1` [Example I-67] displayed an EC50 of 4 nM.

The compound `CC(C)N1CCN(c2cncc(-c3cn(-c4c(F)ccc(NS(=O)(=O)c5ccoc5)c4Cl)nn3)c2)CC1` [Example I-68] came in with an EC50 of 6 nM.

For the compound `CC(C)(C)N1CCN(c2cncc(-c3cn(-c4c(F)ccc(NS(=O)(=O)c5ccoc5)c4Cl)nn3)c2)CC1` [Example I-69], the EC50 turned out to be 5 nM.

`O=S(=O)(Nc1ccc(F)c(-n2cc(-c3cncc(Br)c3)nn2)c1Cl)c1ccoc1` [Example I-70] returned an EC50 of 73 nM. This EC50 lies about 15-fold higher than the previous one.

`O=S(=O)(Nc1ccc(F)c(-n2cc(-c3cncc(Cl)c3)nn2)c1Cl)c1ccoc1` [Example I-71] returned an EC50 of 61 nM.

For `C#CCN1CCN(c2cncc(-c3cn(-c4c(F)ccc(NS(=O)(=O)c5ccoc5)c4Cl)nn3)c2)CC1` [Example I-72], the response was half-maximal at 10 nM (EC50).

As to `C#CCN1CCN(c2cncc(-c3cn(-c4c(F)ccc(NS(=O)(=O)CCC)c4Cl)nn3)c2)CC1` [Example I-73], the EC50 is 44 nM.

On to `CCN1CCN(c2cncc(-c3cn(-c4c(F)ccc(NS(=O)(=O)c5ccoc5)c4Cl)nn3)c2)CC1` [Example I-74], for which it took 5 nM to reach a half-maximal effect (EC50).

Compound `CCCS(=O)(=O)Nc1ccc(F)c(-n2cc(-c3cncc(OC)c3)nn2)c1Cl` [Example I-75] came in with an EC50 of 273 nM.

In turn, `CCCS(=O)(=O)Nc1ccc(F)c(-n2cc(-c3cncc(N4CCN(C(C)(C)C)CC4)c3)nn2)c1Cl` [Example I-76] yielded an EC50 of 65 nM.
